According to US20110166191A1, “3-(2-amino-ethyl)-5-(3-cyclohexyl-propylidene)-thiazolidine-2,4-dione and its derivatives as multiple signaling pathway inhibitors and for the treatment of cancer” (priority 2010, published 2011):

What was measured:
Test in all cases: In vitro kinase screening
Format in all cases: biochemical
p70S6K = molecular target: T1, p70S6K (Homo sapiens, UniProt P23443); conditions: 10 μM concentration
T1 construct: Caliper Life Sciences
Procedure: (§1) Formula II [3-(2-aminoethyl)-5-(3-cyclohexylpropylidene)thiazolidine-2,4-dione] was screened against a panel of kinases at 10 μM concentration by Caliper Life Sciences according to their established protocol.

FGFR1 = molecular target: T2, FGFR1 (Homo sapiens, UniProt P11362); conditions: FGFR1, 10 μM concentration
T2 construct: Caliper Life Sciences (screening service)
Procedure: as §1

c-Raf = molecular target: T3, c-Raf (Homo sapiens, UniProt P04049); conditions: 10 μM concentration
T3 construct: Caliper Life Sciences (screening service)
Procedure: as §1

IRAK4 = molecular target: T4, IRAK4 (Homo sapiens, UniProt Q9NWZ3); conditions: IRAK4, 10 μM concentration
T4 construct: Caliper Life Sciences (screening service)
Procedure: as §1

Ck1d = molecular target: T5, Ck1d (Homo sapiens, UniProt P48730); conditions: 10 μM concentration
T5 construct: Caliper Life Sciences (screening service)
Procedure: as §1

RSK1 = molecular target: T6, RSK1 (Homo sapiens, UniProt Q15418); conditions: RSK1, 10 μM concentration
T6 construct: Caliper Life Sciences
Procedure: as §1

AMPK = conditions: 10 μM concentration
Procedure: as §1

SYK = molecular target: T7, SYK (Homo sapiens, UniProt P43405); conditions: 10 μM concentration
T7 construct: purchased Caliper Life Sciences
Procedure: as §1

CHK2 = molecular target: T8, CHK2 (Homo sapiens, UniProt O96017); conditions: CHK2, 10 μM concentration
T8 construct: Caliper Life Sciences (screening service)
Procedure: as §1

SRC = molecular target: T9, SRC (Homo sapiens, UniProt P12931); conditions: 10 μM concentration
T9 construct: purchased Caliper Life Sciences
Procedure: as §1

PAK2 = molecular target: T10, PAK2 (Homo sapiens, UniProt Q13177); conditions: PAK2, 10 μM concentration
T10 construct: Caliper Life Sciences
Procedure: as §1

Erk2 = molecular target: T11, Erk2 (Homo sapiens, UniProt P28482); conditions: Erk2, 10 μM concentration
T11 construct: Caliper Life Sciences (screening service)
Procedure: as §1

CHK1 = molecular target: T12, CHK1 (Homo sapiens, UniProt O14757); conditions: CHK1, 10 μM concentration
T12 construct: Caliper Life Sciences (screening service)
Procedure: as §1

CDK2 = molecular target: T13, CDK2 (Homo sapiens, UniProt P24941); conditions: CDK2, 10 μM concentration
T13 construct: Caliper Life Sciences (screening service)
Procedure: as §1

PDK1 = molecular target: T14, PDK1 (Homo sapiens, UniProt O15530); conditions: PDK1, 10 μM concentration
T14 construct: Caliper Life Sciences
Procedure: as §1

HGK = molecular target: T15, HGK (Homo sapiens, UniProt O95819); conditions: 10 μM concentration
T15 construct: Caliper Life Sciences (screening service)
Procedure: as §1

Erk1 = molecular target: T16, Erk1 (Homo sapiens, UniProt P27361); conditions: Erk1, 10 μM concentration
T16 construct: Caliper Life Sciences (screening service)
Procedure: as §1

IGF1R = molecular target: T17, IGF1R (Homo sapiens, UniProt P08069); conditions: 10 μM concentration
T17 construct: Caliper Life Sciences (screening service)
Procedure: as §1

PKD2 = molecular target: T18, PKD2 (Homo sapiens, UniProt Q9BZL6); conditions: PKD2, 10 μM concentration
T18 construct: Caliper Life Sciences
Procedure: as §1

MARK1 = molecular target: T19, MARK1 (Homo sapiens, UniProt Q9P0L2); conditions: MARK1, 10 μM concentration
T19 construct: Caliper Life Sciences
Procedure: as §1

PKGa = molecular target: T20, PKGa (Homo sapiens, UniProt Q13976); conditions: 10 μM concentration
T20 construct: Caliper Life Sciences
Procedure: as §1

c-TAK1 = molecular target: T21, c-TAK1 (Homo sapiens, UniProt P27448); conditions: c-TAK1, 10 μM concentration
T21 construct: Caliper Life Sciences (screening service)
Procedure: as §1

BTK = molecular target: T22, BTK (Homo sapiens, UniProt Q06187); conditions: 10 μM concentration
T22 construct: Caliper Life Sciences (screening service)
Procedure: as §1

MET = molecular target: T23, MET (Homo sapiens, UniProt P08581); conditions: 10 μM concentration
T23 construct: Caliper Life Sciences
Procedure: as §1

ROCK2 = molecular target: T24, ROCK2 (Homo sapiens, UniProt O75116); conditions: ROCK2, 10 μM concentration
T24 construct: Caliper Life Sciences
Procedure: as §1

MEK1 = molecular target: T25, MEK1 (Homo sapiens, UniProt Q02750); conditions: MEK1, 10 μM concentration
T25 construct: Caliper Life Sciences
Procedure: as §1

AKT2 = molecular target: T26, AKT2 (Homo sapiens, UniProt P31751); conditions: AKT2, 10 μM concentration
T26 construct: Caliper Life Sciences (screening service)
Procedure: as §1

PKCz = molecular target: T27, PKCz (Homo sapiens, UniProt Q05513); conditions: 10 μM concentration
T27 construct: Caliper Life Sciences
Procedure: as §1

MSK1 = molecular target: T28, MSK1 (Homo sapiens, UniProt O75582); conditions: MSK1, 10 μM concentration
T28 construct: Caliper Life Sciences
Procedure: as §1

AurA = molecular target: T29, AurA (Homo sapiens, UniProt O14965); conditions: 10 μM concentration
T29 construct: Caliper Life Sciences (screening service)
Procedure: as §1

AKT1 = molecular target: T30, AKT1 (Homo sapiens, UniProt P31749); conditions: AKT1, 10 μM concentration
T30 construct: Caliper Life Sciences (screening service)
Procedure: as §1

PIM2 = molecular target: T31, PIM2 (Homo sapiens, UniProt Q9P1W9); conditions: PIM2, 10 μM concentration
T31 construct: Caliper Life Sciences
Procedure: as §1

DYRK1a = molecular target: T32, DYRK1a (Homo sapiens, UniProt Q13627); conditions: 10 μM concentration
T32 construct: Caliper Life Sciences (screening service)
Procedure: as §1

KDR = molecular target: T33, KDR (Homo sapiens, UniProt P35968); conditions: 10 μM concentration
T33 construct: Caliper Life Sciences
Procedure: as §1

p38a = molecular target: T34, p38a (Homo sapiens, UniProt Q16539); conditions: 10 μM concentration
T34 construct: Caliper Life Sciences
Procedure: as §1

SGK1 = molecular target: T35, SGK1 (Homo sapiens, UniProt O00141); conditions: SGK1, 10 μM concentration
T35 construct: Caliper Life Sciences
Procedure: as §1

MEK2 = molecular target: T36, MEK2 (Homo sapiens, UniProt P36507); conditions: MEK2, 10 μM concentration
T36 construct: Caliper Life Sciences
Procedure: as §1

T24 sequence (O75116 whole entry, species assumed): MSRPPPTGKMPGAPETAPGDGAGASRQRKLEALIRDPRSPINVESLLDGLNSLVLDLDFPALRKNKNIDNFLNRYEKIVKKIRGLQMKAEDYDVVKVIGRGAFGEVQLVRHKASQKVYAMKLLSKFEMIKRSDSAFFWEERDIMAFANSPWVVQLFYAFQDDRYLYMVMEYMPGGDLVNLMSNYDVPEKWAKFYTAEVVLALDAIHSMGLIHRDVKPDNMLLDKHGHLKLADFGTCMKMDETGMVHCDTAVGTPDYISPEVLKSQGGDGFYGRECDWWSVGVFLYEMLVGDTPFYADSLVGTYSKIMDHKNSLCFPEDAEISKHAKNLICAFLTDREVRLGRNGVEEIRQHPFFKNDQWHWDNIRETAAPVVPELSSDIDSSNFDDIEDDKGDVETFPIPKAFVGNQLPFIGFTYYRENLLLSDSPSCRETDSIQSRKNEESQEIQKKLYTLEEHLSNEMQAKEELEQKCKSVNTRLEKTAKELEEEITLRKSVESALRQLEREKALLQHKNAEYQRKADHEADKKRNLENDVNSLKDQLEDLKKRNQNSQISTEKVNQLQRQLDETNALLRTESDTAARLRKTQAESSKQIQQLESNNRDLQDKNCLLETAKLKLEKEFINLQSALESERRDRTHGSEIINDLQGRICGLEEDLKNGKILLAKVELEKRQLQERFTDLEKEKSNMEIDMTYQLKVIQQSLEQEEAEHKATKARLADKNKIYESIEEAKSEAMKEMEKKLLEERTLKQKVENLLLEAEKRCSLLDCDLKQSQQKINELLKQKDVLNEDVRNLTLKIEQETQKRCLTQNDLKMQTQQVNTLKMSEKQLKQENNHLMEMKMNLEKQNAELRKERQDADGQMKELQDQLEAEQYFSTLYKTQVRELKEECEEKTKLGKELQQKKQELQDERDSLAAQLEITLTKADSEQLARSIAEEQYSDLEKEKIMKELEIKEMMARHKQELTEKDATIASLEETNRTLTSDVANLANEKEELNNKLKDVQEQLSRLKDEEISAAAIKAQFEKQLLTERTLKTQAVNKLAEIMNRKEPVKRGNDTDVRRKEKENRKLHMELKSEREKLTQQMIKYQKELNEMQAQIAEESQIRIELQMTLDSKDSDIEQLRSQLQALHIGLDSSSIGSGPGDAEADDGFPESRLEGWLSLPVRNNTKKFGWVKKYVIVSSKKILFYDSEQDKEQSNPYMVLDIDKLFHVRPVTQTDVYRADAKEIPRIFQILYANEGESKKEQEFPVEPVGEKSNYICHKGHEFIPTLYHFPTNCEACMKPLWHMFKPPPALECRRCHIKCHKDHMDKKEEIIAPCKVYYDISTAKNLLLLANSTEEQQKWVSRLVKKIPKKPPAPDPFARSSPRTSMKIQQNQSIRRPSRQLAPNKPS
T1 sequence (P23443 whole entry): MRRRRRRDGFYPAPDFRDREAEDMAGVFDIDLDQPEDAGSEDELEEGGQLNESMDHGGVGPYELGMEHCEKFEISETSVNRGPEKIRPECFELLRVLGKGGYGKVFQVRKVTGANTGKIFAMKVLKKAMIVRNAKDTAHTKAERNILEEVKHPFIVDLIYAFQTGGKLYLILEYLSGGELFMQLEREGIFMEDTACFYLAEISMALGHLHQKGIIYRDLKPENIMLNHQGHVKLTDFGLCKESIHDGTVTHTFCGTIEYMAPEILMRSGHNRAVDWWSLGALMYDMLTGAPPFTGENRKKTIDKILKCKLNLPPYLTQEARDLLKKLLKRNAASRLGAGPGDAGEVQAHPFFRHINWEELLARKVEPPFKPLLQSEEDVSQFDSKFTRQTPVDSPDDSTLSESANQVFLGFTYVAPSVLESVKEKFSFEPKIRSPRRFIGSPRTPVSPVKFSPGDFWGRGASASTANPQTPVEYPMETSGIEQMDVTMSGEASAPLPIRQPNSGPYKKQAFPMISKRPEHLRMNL
T27 sequence (Q05513 whole entry): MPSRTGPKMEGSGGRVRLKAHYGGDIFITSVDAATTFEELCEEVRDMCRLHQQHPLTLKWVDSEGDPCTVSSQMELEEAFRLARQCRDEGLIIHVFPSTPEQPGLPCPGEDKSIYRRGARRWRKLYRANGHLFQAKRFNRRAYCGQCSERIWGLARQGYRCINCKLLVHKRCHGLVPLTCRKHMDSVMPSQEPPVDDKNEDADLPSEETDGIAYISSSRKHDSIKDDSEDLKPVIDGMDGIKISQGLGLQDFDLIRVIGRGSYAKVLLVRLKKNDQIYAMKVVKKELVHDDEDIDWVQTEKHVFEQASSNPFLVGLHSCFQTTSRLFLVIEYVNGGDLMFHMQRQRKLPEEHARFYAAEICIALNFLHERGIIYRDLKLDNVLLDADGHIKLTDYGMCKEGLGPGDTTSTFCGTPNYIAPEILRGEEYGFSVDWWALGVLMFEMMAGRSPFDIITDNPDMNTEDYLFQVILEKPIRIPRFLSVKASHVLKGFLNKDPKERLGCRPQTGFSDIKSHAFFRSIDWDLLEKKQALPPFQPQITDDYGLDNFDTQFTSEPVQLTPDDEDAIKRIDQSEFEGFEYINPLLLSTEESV
T30 sequence (P31749 whole entry): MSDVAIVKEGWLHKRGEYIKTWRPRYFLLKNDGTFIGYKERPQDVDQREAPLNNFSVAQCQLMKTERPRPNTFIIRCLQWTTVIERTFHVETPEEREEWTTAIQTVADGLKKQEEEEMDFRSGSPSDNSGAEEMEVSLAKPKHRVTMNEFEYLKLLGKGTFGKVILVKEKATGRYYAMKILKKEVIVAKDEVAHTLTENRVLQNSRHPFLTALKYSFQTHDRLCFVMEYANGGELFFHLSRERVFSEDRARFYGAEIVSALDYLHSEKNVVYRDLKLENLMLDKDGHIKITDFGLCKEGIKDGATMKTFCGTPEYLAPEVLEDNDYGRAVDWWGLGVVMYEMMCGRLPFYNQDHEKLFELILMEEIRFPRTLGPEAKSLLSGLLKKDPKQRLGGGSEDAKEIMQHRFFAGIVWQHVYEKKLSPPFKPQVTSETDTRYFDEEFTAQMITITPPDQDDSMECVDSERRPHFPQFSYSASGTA
T12 sequence (O14757 whole entry): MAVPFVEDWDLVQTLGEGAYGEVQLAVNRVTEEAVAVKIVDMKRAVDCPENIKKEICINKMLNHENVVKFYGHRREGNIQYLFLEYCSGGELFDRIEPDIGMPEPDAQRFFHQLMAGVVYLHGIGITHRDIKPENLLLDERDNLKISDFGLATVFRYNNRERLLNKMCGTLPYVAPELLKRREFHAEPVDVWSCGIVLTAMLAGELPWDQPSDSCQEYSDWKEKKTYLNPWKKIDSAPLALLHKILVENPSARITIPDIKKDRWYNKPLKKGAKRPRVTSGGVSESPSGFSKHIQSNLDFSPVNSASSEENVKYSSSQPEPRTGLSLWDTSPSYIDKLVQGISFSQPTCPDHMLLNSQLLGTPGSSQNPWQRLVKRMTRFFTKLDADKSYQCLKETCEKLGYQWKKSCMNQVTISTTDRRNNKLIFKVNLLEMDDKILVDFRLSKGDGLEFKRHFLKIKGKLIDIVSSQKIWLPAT
T25 sequence (Q02750 whole entry, species assumed): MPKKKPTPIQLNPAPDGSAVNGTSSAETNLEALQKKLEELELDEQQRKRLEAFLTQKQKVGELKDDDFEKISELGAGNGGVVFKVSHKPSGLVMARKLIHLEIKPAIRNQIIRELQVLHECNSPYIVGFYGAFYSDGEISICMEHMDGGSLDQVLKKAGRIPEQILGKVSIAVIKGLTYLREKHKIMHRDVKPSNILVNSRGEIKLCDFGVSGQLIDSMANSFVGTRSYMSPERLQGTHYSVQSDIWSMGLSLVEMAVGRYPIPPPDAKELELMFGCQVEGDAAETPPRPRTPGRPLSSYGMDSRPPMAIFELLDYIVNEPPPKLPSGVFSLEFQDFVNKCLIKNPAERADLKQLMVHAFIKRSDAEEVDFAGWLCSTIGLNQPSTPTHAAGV
T35 sequence (O00141 whole entry, species assumed): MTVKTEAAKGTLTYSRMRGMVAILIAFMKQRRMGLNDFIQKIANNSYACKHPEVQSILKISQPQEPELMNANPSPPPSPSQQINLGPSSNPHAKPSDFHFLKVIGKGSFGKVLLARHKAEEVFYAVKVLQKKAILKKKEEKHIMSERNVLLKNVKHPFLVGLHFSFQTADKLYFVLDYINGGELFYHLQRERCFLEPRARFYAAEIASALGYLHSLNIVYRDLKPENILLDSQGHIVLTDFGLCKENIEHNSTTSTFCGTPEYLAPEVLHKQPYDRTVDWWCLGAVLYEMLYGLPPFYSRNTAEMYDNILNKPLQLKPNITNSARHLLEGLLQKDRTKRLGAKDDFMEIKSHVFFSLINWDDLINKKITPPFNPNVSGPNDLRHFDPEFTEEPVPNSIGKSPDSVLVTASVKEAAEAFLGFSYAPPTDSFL
T5 sequence (P48730 whole entry): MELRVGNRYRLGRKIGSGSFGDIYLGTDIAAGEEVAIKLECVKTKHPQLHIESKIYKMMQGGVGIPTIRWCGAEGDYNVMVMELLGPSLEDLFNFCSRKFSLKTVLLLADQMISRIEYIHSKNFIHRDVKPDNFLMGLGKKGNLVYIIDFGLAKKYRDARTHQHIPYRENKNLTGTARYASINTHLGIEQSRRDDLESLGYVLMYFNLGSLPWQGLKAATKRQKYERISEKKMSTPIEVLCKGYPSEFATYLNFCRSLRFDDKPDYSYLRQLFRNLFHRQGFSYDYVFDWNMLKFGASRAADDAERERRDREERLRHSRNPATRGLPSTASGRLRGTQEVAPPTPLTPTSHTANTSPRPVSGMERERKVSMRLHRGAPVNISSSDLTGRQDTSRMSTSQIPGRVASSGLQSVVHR
T31 sequence (Q9P1W9 whole entry, species assumed): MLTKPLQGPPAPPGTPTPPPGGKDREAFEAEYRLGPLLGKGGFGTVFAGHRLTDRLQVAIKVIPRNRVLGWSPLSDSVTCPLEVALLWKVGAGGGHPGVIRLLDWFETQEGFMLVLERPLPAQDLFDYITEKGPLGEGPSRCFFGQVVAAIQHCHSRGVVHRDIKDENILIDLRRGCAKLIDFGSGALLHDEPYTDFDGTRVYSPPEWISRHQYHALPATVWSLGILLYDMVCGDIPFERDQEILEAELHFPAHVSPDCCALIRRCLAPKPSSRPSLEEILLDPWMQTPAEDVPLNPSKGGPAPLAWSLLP

NCCN1C(=O)S/C(=C\CCC2CCCCC2)C1=O [Example 4, 3-(2-aminoethyl)-5-(3-cyclohexylpropylidene)thiazolidine-2,4-dione]
inhibition at 10 µM (p70S6K): 5% | inhibition at 10 µM (FGFR1): 3% | inhibition at 10 µM (c-Raf): -1% | inhibition at 10 µM (IRAK4): -1% | inhibition at 10 µM (Ck1d): -5% | inhibition at 10 µM (RSK1): 2% | % Inhibition (AMPK): 76% | inhibition at 10 µM (SYK): 9% | inhibition at 10 µM (CHK2): 8% | inhibition at 10 µM (SRC): 2% | inhibition at 10 µM (PAK2): 10% | inhibition at 10 µM (Erk2): 11% | inhibition at 10 µM (CHK1): 11% | inhibition at 10 µM (CDK2): -2% | inhibition at 10 µM (PDK1): -2% | inhibition at 10 µM (HGK): -1% | inhibition at 10 µM (Erk1): 21% | inhibition at 10 µM (IGF1R): -1% | inhibition at 10 µM (PKD2): 0% | inhibition at 10 µM (MARK1): 0% | inhibition at 10 µM (PKGa): -2% | inhibition at 10 µM (c-TAK1): 6% | inhibition at 10 µM (BTK): 12% | inhibition at 10 µM (MET): -1% | inhibition at 10 µM (ROCK2): -1% | inhibition at 10 µM (MEK1): 69% | inhibition at 10 µM (AKT2): 8% | inhibition at 10 µM (PKCz): -8% | inhibition at 10 µM (MSK1): 6% | inhibition at 10 µM (AurA): -4% | inhibition at 10 µM (AKT1): 3% | inhibition at 10 µM (PIM2): 38% | inhibition at 10 µM (DYRK1a): -5% | inhibition at 10 µM (KDR): -28% | inhibition at 10 µM (p38a): -13% | inhibition at 10 µM (SGK1): 14% | inhibition at 10 µM (MEK2): 27%
